One data set deals with CYP3A4 (Homo sapiens, UniProt P08684). The data set is described as follows: Cytochrome P450 (CYP450) Inhibition Assay, CYP3A4 (Vivid fluorescence, BOMCC substrate). The following applies: human, P450 Baculosomes (recombinant CYP3A4), probe BOMCC (Vivid substrate).
For a further data set, the system named is sodium channel. The data set is described as follows: Guanidine influx assay (14C-guanidine radiotracer flux, in vitro). To be noted: guanidine influx assay using a known cell line that expresses a sodium channel. It counts as cell-based, human or rat. A digest of the protocol: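 Cells stably expressing human or rat sodium channels (~100,000/well, 20–24 h) were exposed in low-sodium choline buffer to test agent plus aconitine activator and 14C-guanidine at ambient temperature. Intracellular 14C-guanidine was counted by scintillation; IC50 fitted by 4-parameter logistic over half-dilutions around 1 μM.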

pIC50: −log10 of the molar value. Structures can show the parent of a compound that is named as a salt.

The values below come from US8263606B2 (Xenon Pharmaceuticals Inc., priority 2008, dated 2012).

CYP3A4, sequence (P08684 whole entry): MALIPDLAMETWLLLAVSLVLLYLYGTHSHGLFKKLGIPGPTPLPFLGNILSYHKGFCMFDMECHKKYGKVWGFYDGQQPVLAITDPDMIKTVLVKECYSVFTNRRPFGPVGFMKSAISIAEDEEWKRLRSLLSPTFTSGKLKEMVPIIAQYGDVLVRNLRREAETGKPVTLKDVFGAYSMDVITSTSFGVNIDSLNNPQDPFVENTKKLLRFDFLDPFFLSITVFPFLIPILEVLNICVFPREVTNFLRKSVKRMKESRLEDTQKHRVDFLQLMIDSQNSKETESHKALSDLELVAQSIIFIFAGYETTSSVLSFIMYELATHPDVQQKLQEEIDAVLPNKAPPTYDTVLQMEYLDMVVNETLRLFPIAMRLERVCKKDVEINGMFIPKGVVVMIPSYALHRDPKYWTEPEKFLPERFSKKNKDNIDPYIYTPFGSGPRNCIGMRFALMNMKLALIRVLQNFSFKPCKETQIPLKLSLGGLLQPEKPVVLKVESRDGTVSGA

By inhibition is commonly meant how much of the control response was suppressed. As usually defined, the pIC50 is the IC50 on a negative log10 scale, so that one unit is a factor of ten. Consider `O=C(NCCc1cccs1)c1ccc(CN2C(=O)C3(COc4cc5c(cc43)CCO5)c3ccccc32)cc1` (stereo not shown) [Example 12.30, 4-[(2′-oxo-5,6-dihydrospiro[benzo[1,2-b:5,4-b′]difuran-3,3′-indol]-1′(2′H)-yl)methyl]-N-(2-thiophen-2-ylethyl)benzamide], for which, on CYP3A4, the inhibition at 10 µM is above 50%. Besides, the pIC50 in the data set on sodium channel is 6.00 to 7.00.

Consider `NC(=O)c1ccc(CN2C(=O)C3(COc4cc5c(cc43)CCO5)c3ccccc32)cc1` (stereo not shown) [Example 12.31, 4-[(2′-oxo-5,6-dihydrospiro[benzo[1,2-b:5,4-b′]difuran-3,3′-indol]-1′(2′H)-yl)methyl]benzamide], for which the inhibition at 10 µM at CYP3A4 was above 50%. Further, in the data set on sodium channel, the negative-log IC50 (pIC50) is 7.00 to 9.00.

As for `O=C(Nc1ccc2c(c1)CCC2)c1ccc(CN2C(=O)C3(COc4cc5c(cc43)CCO5)c3ccccc32)cc1` (stereo not shown) [Example 12.32, N-(2,3-dihydro-1H-inden-5-yl)-4-[(2′-oxo-5,6-dihydrospiro[benzo[1,2-b:5,4-b′]difuran-3,3′-indol]-1′(2′H)-yl)methyl]benzamide], the inhibition at 10 µM at CYP3A4 is below 50%. Moreover, the pIC50 in the data set with sodium channel is 5.00 to 6.00.

Regarding `O=C(c1ccc(CN2C(=O)C3(COc4cc5c(cc43)CCO5)c3ccccc32)cc1)N1CCOCC1` (stereo not shown) [Example 12.33, 1′-[4-(morpholin-4-ylcarbonyl)benzyl]-5,6-dihydrospiro[benzo[1,2-b:5,4-b′]difuran-3,3′-indol]-2′(1′H)-one], the inhibition at 10 µM at CYP3A4 is above 50%. Also, the pIC50 in the data set with sodium channel was 5.00 to 6.00.

As to `NC(=O)CN1C(=O)C2(COc3cc4c(cc32)CCO4)c2ccccc21` (stereo not shown) [Example 12.46, 2-(2′-oxo-5,6-dihydrospiro[benzo[1,2-b:5,4-b′]difuran-3,3′-indol]-1′(2′H)-yl)acetamide], on CYP3A4, the inhibition at 10 µM is below 50%. For the same molecule, in the data set on sodium channel, the pIC50 is 5.00 to 6.00.

As for `CCc1ccc(NC(=O)CN2C(=O)C3(COc4cc5c(cc43)CCO5)c3ccccc32)cc1` (stereo not shown) [Example 12.47, N-(4-ethylphenyl)-2-(2′-oxo-5,6-dihydrospiro[benzo[1,2-b:5,4-b′]difuran-3,3′-indol]-1′(2′H)-yl)acetamide], on CYP3A4, the inhibition at 10 µM is below 50%. Besides, the pIC50 in the data set with sodium channel is 5.00 to 6.00.

Regarding `CCN(CC)C(=O)CN1C(=O)C2(COc3cc4c(cc32)CCO4)c2ccccc21` (stereo not shown) [Example 12.48, N,N-diethyl-2-(2′-oxo-5,6-dihydrospiro[benzo[1,2-b:5,4-b′]difuran-3,3′-indol]-1′(2′H)-yl)acetamide], the inhibition at 10 µM at CYP3A4 is below 50%. Moreover, in the data set with sodium channel, the pIC50 was 6.00 to 7.00.

As for `CNC(=O)c1cccnc1CN1C(=O)C2(COc3cc4c(cc32)OCCO4)c2ccccc21` (stereo not shown) [Example 12.63, N-methyl-2-[(2′-oxo-2,3-dihydrospiro[furo[2,3-g][1,4]benzodioxine-8,3′-indol]-1′(2′H)-yl)methyl]pyridine-3-carboxamide], the inhibition at 10 µM at CYP3A4 is below 50%. Moreover, the pIC50 in the data set with sodium channel was 5.00 to 6.00.

With `NCCNC(=O)c1cccnc1CN1C(=O)C2(COc3cc4c(cc32)OCCO4)c2ccccc21` (stereo not shown) [Example 12.64, N-(2-aminoethyl)-2-[(2′-oxo-2,3-dihydrospiro[furo[2,3-g][1,4]benzodioxine-8,3′-indol]-1′(2′H)-yl)methyl]pyridine-3-carboxamide dihydrochloride], the inhibition at 10 µM at CYP3A4 was above 50%. For the same molecule, the pIC50 in the data set with sodium channel was 6.00 to 7.00.

In the case of `O=C(O)c1ccc(CN2C(=O)C3(COc4cc5c(cc43)CCO5)c3ccccc32)o1` (stereo not shown) [Example 13, 5-[(2′-oxo-5,6-dihydrospiro[benzo[1,2-b:5,4-b′]difuran-3,3′-indol]-1′(2′H)-yl)methyl]furan-2-carboxylic acid], the inhibition at 10 µM at CYP3A4 is below 50%. For the same molecule, in the data set on sodium channel, the pIC50 was 5.00 to 6.00.

In the case of `CN(C)C(=O)c1ccc(CN2C(=O)C3(COc4cc5c(cc43)CCO5)c3ccccc32)o1` (stereo not shown) [Example 13.1, N,N-dimethyl-5-[(2′-oxo-5,6-dihydrospiro[benzo[1,2-b:5,4-b′]difuran-3,3′-indol]-1′(2′H)-yl)methyl]furan-2-carboxamide], the inhibition at 10 µM at CYP3A4 was above 50%. In addition, in the data set with sodium channel, the pIC50 is 7.00 to 9.00.

In the case of `CNC(=O)c1ccc(CN2C(=O)C3(COc4cc5c(cc43)CCO5)c3ccccc32)o1` (stereo not shown) [Example 13.2, N-methyl-5-[(2′-oxo-5,6-dihydrospiro[benzo[1,2-b:5,4-b′]difuran-3,3′-indol]-1′(2′H)-yl)methyl]furan-2-carboxamide], the inhibition at 10 µM on CYP3A4 was above 50%. Besides, the negative-log IC50 (pIC50) with sodium channel is 6.00 to 7.00.

On to `NC(=O)c1coc(CN2C(=O)C3(COc4cc5c(cc43)CCO5)c3ccccc32)n1` (stereo not shown) [Example 13.3, 2-[(2′-oxo-5,6-dihydrospiro[benzo[1,2-b:5,4-b′]difuran-3,3′-indol]-1′(2′H)-yl)methyl]-1,3-oxazole-4-carboxamide], for which the inhibition at 10 µM on CYP3A4 is below 50%. The pIC50 in the data set with sodium channel was 6.00 to 7.00.

With `CN(C)C(=O)c1coc(CN2C(=O)C3(COc4cc5c(cc43)CCO5)c3ccccc32)n1` (stereo not shown) [Example 13.4, N,N-dimethyl-2-[(2′-oxo-5,6-dihydrospiro[benzo[1,2-b:5,4-b′]difuran-3,3′-indol]-1′(2′H)-yl)methyl]-1,3-oxazole-4-carboxamide], the inhibition at 10 µM on CYP3A4 is below 50%. The pIC50 with sodium channel was 6.00 to 7.00.

Consider `O=C(NC1CC1)c1coc(CN2C(=O)C3(COc4cc5c(cc43)OCO5)c3ccccc32)n1` (stereo not shown) [Example 13.5, N-cyclopropyl-2-[(2′-oxospiro[furo[2,3-f][1,3]benzodioxole-7,3′-indol]-1′(2′H)-yl)methyl]-1,3-oxazole-4-carboxamide], for which the inhibition at 10 µM at CYP3A4 is above 50%. The pIC50 in the data set with sodium channel is 7.00 to 9.00.

`CC(C)NC(=O)c1coc(CN2C(=O)C3(COc4cc5c(cc43)OCO5)c3ccccc32)n1` (stereo not shown) [Example 13.6, N-(1-methylethyl)-2-[(2′-oxospiro[furo[2,3-f][1,3]benzodioxole-7,3′-indol]-1′(2′H)-yl)methyl]-1,3-oxazole-4-carboxamide]: at CYP3A4, the inhibition at 10 µM is above 50%. For the same molecule, in the data set on sodium channel, the pIC50 is 7.00 to 9.00.

Consider `O=C1N(C[C@H]2CCCO2)c2cccc(/C=C/c3ccc(F)cc3)c2C12COc1cc3c(cc12)CCO3` (stereo partly drawn) [Example 16.1, 4′-[(E)-2-(4-fluorophenyl)ethenyl]-1′-[(2R)-tetrahydrofuran-2-ylmethyl]-5,6-dihydrospiro[benzo[1,2-b:5,4-b′]difuran-3,3′-indol]-2′(1′H)-one], for which the inhibition at 10 µM on CYP3A4 is above 50%. The pIC50 in the data set on sodium channel was 6.00 to 7.00.

In the case of `O=C1N(C[C@H]2CCCO2)c2cccc(-c3cccc4c3sc3ccccc34)c2C12COc1cc3c(cc12)CCO3` (stereo partly drawn) [Example 16.2, 4′-dibenzo[b,d]thiophen-4-yl-1′-[(2R)-tetrahydrofuran-2-ylmethyl]-5,6-dihydrospiro[benzo[1,2-b:5,4-b′]difuran-3,3′-indol]-2′(1′H)-one], the inhibition at 10 µM at CYP3A4 was above 50%. Besides, the pIC50 with sodium channel is 6.00 to 7.00.

Turning to `O=C1N(C[C@H]2CCCO2)c2cccc(-c3csc4ccccc34)c2C12COc1cc3c(cc12)CCO3` (stereo partly drawn) [Example 16.3, 4′-(1-benzothiophen-3-yl)-1′-[(2R)-tetrahydrofuran-2-ylmethyl]-5,6-dihydrospiro[benzo[1,2-b:5,4-b′]difuran-3,3′-indol]-2′(1′H)-one], at CYP3A4, the inhibition at 10 µM was above 50%. The pIC50 in the data set on sodium channel was 5.00 to 6.00.

As for `Cn1ccc2cc(-c3cccc4c3C3(COc5cc6c(cc53)CCO6)C(=O)N4C[C@H]3CCCO3)ccc21` (stereo partly drawn) [Example 16.4, 4′-(1-methyl-1H-indol-5-yl)-1′-[(2R)-tetrahydrofuran-2-ylmethyl]-5,6-dihydrospiro[benzo[1,2-b:5,4-b′]difuran-3,3′-indol]-2′(1′H)-one], the inhibition at 10 µM at CYP3A4 was above 50%. Moreover, the pIC50 in the data set with sodium channel was 6.00 to 7.00.

Consider `O=C1N(C[C@H]2CCCO2)c2cccc(-c3cc(C(F)(F)F)cc(C(F)(F)F)c3)c2C12COc1cc3c(cc12)CCO3` (stereo partly drawn) [Example 16.5, 4′-[3,5-bis(trifluoromethyl)phenyl]-1′-[(2R)-tetrahydrofuran-2-ylmethyl]-5,6-dihydrospiro[benzo[1,2-b:5,4-b′]difuran-3,3′-indol]-2′(1′H)-one], for which the inhibition at 10 µM on CYP3A4 is above 50%. The pIC50 with sodium channel is 6.00 to 7.00.

As for `CCCCOc1ccc(-c2cccc3c2C2(COc4cc5c(cc42)CCO5)C(=O)N3C[C@H]2CCCO2)cc1` (stereo partly drawn) [Example 16.8, 4′-(4-butoxyphenyl)-1′-[(2R)-tetrahydrofuran-2-ylmethyl]-5,6-dihydrospiro[benzo[1,2-b:5,4-b′]difuran-3,3′-indol]-2′(1′H)-one], the inhibition at 10 µM on CYP3A4 is below 50%. In addition, in the data set on sodium channel, the pIC50 was 6.00 to 7.00.

Regarding `Cc1noc2cc3c(cc12)C1(CO3)C(=O)N(Cc2ccc(-c3cc(N)n[nH]3)cc2)c2ccccc21` (stereo not shown) [Example 29.1, 1′-[4-(3-amino-1H-pyrazol-5-yl)benzyl]-3-methylspiro[furo[3,2-f][1,2]benzisoxazole-5,3′-indol]-2′(1′H)-one hydrochloride], on CYP3A4, the inhibition at 10 µM is above 50%. The pIC50 in the data set with sodium channel was 6.00 to 7.00.

As to `Nc1cc(-c2ccc(CN3C(=O)C4(COc5cc6c(cc54)OCCO6)c4ccccc43)cc2)[nH]n1` (stereo not shown) [Example 29.2, 1′-[4-(3-amino-1H-pyrazol-5-yl)benzyl]-2,3-dihydrospiro[furo[2,3-g][1,4]benzodioxine-8,3′-indol]-2′(1′H)-one hydrochloride], the inhibition at 10 µM at CYP3A4 is above 50%. Besides, the pIC50 in the data set with sodium channel was 6.00 to 7.00.

As for `O=C1N(Cc2ccc(N[C@@H]3CCNC3)cc2)c2ccccc2C12COc1cc(F)c(F)cc12` (stereo partly drawn) [Example 33.2, 5,6-difluoro-1′-{4-[(3R)-pyrrolidin-3-ylamino]benzyl}spiro[1-benzofuran-3,3′-indol]-2′(1′H)-one hydrochloride], the inhibition at 10 µM at CYP3A4 is above 50%. In addition, in the data set on sodium channel, the pIC50 was 5.00 to 6.00.

Regarding `NC(=O)c1cccc(CN2C(=O)C3(COc4cc5c(cc43)OCCO5)c3ccccc32)n1` (stereo not shown) [Example 42, 6-[(2′-oxo-2,3-dihydrospiro[furo[2,3-g][1,4]benzodioxine-8,3′-indol]-1′(2′H)-yl)methyl]pyridine-2-carboxamide], the inhibition at 10 µM at CYP3A4 is above 50%. Moreover, the pIC50 in the data set on sodium channel was 7.00 to 9.00.
